From patent US20250381185A1, “CDK4/PARP1 DUAL-TARGET INHIBITOR AND USE THEREOF” (YANBIAN UNIVERSITY, priority 2024, published 2025)

Legend:
CDK4 = CDK4 (Homo sapiens, UniProt P11802); experiment: IC50 of dual-target inhibitors against CDK4; type: biochemical
Procedure: The effectiveness of the present application was verified through the following tests: • (1) IC50 values of the dual-target inhibitors (Examples 1-11) against CDK4 were determined.

PARP1 = PARP1 (Homo sapiens, UniProt P09874); experiment: IC50 of dual-target inhibitors against PARP1; type: biochemical
PARP1, sequence (P09874 whole entry): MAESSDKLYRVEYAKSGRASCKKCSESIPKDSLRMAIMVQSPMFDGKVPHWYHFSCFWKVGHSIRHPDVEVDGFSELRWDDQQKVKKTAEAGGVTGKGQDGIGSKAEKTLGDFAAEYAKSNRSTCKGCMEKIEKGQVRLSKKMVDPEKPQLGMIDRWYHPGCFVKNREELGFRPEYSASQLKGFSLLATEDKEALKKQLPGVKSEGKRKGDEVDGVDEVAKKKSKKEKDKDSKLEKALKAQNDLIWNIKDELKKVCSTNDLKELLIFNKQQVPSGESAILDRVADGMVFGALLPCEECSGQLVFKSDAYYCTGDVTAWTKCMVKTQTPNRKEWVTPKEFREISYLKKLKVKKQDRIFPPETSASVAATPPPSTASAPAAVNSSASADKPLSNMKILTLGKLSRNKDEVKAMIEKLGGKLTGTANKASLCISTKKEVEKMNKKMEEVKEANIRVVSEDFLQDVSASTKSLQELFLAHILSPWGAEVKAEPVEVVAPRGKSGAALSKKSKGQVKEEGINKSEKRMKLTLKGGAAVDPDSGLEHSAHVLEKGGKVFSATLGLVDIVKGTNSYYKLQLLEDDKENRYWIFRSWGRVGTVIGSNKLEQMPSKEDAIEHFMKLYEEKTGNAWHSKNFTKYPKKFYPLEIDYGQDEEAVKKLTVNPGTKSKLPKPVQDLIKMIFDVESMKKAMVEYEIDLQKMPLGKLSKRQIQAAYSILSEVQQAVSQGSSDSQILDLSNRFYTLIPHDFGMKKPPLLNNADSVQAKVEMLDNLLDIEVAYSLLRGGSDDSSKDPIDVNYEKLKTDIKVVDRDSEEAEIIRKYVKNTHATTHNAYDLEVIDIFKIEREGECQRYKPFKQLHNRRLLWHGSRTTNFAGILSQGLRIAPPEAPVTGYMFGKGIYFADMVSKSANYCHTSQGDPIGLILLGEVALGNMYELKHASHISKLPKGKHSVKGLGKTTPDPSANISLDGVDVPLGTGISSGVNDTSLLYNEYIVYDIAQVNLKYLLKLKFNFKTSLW

CDK4, sequence (P11802 whole entry): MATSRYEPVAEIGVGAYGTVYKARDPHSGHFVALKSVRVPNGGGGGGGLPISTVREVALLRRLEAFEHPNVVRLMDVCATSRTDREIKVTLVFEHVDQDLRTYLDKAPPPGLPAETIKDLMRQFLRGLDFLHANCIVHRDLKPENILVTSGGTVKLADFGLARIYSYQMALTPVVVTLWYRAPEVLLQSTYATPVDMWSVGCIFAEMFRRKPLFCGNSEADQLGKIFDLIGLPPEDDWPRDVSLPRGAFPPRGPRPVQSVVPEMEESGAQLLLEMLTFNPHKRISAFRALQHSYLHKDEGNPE
CDK4, sequence (P24385 whole entry partner): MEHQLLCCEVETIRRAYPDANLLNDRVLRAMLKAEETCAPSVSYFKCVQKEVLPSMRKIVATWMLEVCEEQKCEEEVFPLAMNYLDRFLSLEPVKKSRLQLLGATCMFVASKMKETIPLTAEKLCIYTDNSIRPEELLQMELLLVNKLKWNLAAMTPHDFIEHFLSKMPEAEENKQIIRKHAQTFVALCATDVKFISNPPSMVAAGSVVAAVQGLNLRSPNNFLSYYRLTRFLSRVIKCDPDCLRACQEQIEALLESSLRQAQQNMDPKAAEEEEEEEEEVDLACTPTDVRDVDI

SMILES	IC50 (CDK4) [nM]	IC50 (PARP1) [nM]
Cc1nc2c(F)cc(-c3nc(Nc4cccc(Cc5n[nH]c(=O)c6ccccc56)c4)ncc3F)cc2n1C(C)C [Compound A1]	< 10	100 to 500
Cc1nc2c(F)cc(-c3nc(Nc4ccc(C(=O)Nc5cccc(Cc6n[nH]c(=O)c7ccccc67)c5)cc4)ncc3F)cc2n1C(C)C [Compound A2]	< 10	> 500
Cc1nc2c(F)cc(-c3nc(Nc4ccc(CC(=O)Nc5cccc(Cc6n[nH]c(=O)c7ccccc67)c5)cc4)ncc3F)cc2n1C(C)C [Compound A3]	10 to 100	10 to 100
Cc1nc2c(F)cc(-c3nc(Nc4ccc(NC(=O)CCC(=O)Nc5cccc(Cc6n[nH]c(=O)c7ccccc67)c5)cc4)ncc3F)cc2n1C(C)C [Compound A4]	< 10	100 to 500
Cc1nc2c(F)cc(-c3nc(Nc4cccc(C(=O)Nc5cccc(Cc6n[nH]c(=O)c7ccccc67)c5)c4)ncc3F)cc2n1C(C)C [Compound A5]	10 to 100	> 500
Cc1nc2c(F)cc(-c3nc(Nc4ccc(Cc5n[nH]c(=O)c6ccccc56)cc4)ncc3F)cc2n1C(C)C [Compound B1]	< 10	> 500
Cc1nc2c(F)cc(-c3nc(Nc4ccc(NC(=O)c5cc(Cc6n[nH]c(=O)c7ccccc67)ccc5F)cc4)ncc3F)cc2n1C(C)C [Compound C1]	10 to 100	100 to 500
Cc1nc2c(F)cc(-c3nc(Nc4ccc(C(=O)N5CCN(c6ccc(NC(=O)c7cc(Cc8n[nH]c(=O)c9ccccc89)ccc7F)cc6)CC5)cc4)ncc3F)cc2n1C(C)C [Compound C2]	10 to 100	> 500
Cc1nc2c(F)cc(-c3nc(Nc4ccc(C(=O)N5CCN(c6cccc(NC(=O)c7cc(Cc8n[nH]c(=O)c9ccccc89)ccc7F)c6)CC5)cc4)ncc3F)cc2n1C(C)C [Compound C3]	10 to 100	> 500
Cc1nc2c(F)cc(-c3nc(Nc4ccc(N5CCN(C(=O)c6cc(Cc7n[nH]c(=O)c8ccccc78)ccc6F)CC5)cc4)ncc3F)cc2n1C(C)C [Compound C5]	< 10	< 10
Cc1nc2c(F)cc(-c3nc(Nc4ccc(CN5CCN(C(=O)c6cc(Cc7n[nH]c(=O)c8ccccc78)ccc6F)CC5)cc4)ncc3F)cc2n1C(C)C [Compound C6]	< 10	10 to 100
Cc1nc2c(F)cc(-c3nc(Nc4ccc(C(=O)N5CCN(C(=O)c6cc(Cc7n[nH]c(=O)c8ccccc78)ccc6F)CC5)cc4)ncc3F)cc2n1C(C)C [Compound C7]	< 10	10 to 100
Cc1nc2c(F)cc(-c3nc(Nc4cccc(C(=O)N5CCN(C(=O)c6cc(Cc7n[nH]c(=O)c8ccccc78)ccc6F)CC5)c4)ncc3F)cc2n1C(C)C [Compound C8]	10 to 100	10 to 100
Cc1nc2c(F)cc(-c3nc(Nc4ccc(CC(=O)N5CCN(C(=O)c6cc(Cc7n[nH]c(=O)c8ccccc78)ccc6F)CC5)cc4)ncc3F)cc2n1C(C)C [Compound C9]	< 10	10 to 100
CN(C)C(=O)c1cc2cnc(NNC(=O)c3cc(Cc4n[nH]c(=O)c5ccccc45)ccc3F)nc2n1C1CCCC1 [Compound D1]	> 500	100 to 500
CN(C)C(=O)c1cc2cnc(NCCCCCCNC(=O)c3cc(Cc4n[nH]c(=O)c5ccccc45)ccc3F)nc2n1C1CCCC1 [Compound D6]	> 500	< 10
CN(C)C(=O)c1cc2cnc(N3CCN(C(=O)c4cc(Cc5n[nH]c(=O)c6ccccc56)ccc4F)CC3)nc2n1C1CCCC1 [Compound D9]	> 500	< 10
CN(C)C(=O)c1cc2cnc(Nc3ccc(NC(=O)CNC(=O)c4cc(Cc5n[nH]c(=O)c6ccccc56)ccc4F)cc3)nc2n1C1CCCC1 [Compound D14]	< 10	10 to 100
CN(C)C(=O)c1cc2cnc(NCCNC(=O)CNC(=O)c3cc(Cc4n[nH]c(=O)c5ccccc45)ccc3F)nc2n1C1CCCC1 [Compound E1]	100 to 500	< 10
CC(C)[C@H](NC(=O)c1cc(Cc2n[nH]c(=O)c3ccccc23)ccc1F)C(=O)NCCNc1ncc2cc(C(=O)N(C)C)n(C3CCCC3)c2n1 [Compound E2]	100 to 500	10 to 100
CN(C)C(=O)c1cc2cnc(NCCNC(=O)[C@H](Cc3c[nH]c4ccccc34)NC(=O)c3cc(Cc4n[nH]c(=O)c5ccccc45)ccc3F)nc2n1C1CCCC1 [Compound E3]	> 500	10 to 100
CN(C)C(=O)c1cc2nc(NCCNC(=O)[C@H](Cc3ccccc3)NC(=O)c3cc(Cc4n[nH]c(=O)c5ccccc45)ccc3F)ncc2n1C1CCCC1 [Compound E4]	> 500	10 to 100
CC(C)[C@H](NC(=O)c1cc(Cc2n[nH]c(=O)c3ccccc23)ccc1F)C(=O)NNc1ncc2c(cc(C(=O)N(C)C)n2C2CCCC2)n1 [Compound E8]	> 500	10 to 100
CN(C)C(=O)c1cc2cnc(NCCOC(=O)c3cc(Cc4n[nH]c(=O)c5ccccc45)ccc3F)nc2n1C1CCCC1 [Compound F1]	> 500	10 to 100
CN(C)C(=O)c1cc2cnc(NCCCOC(=O)c3cc(Cc4n[nH]c(=O)c5ccccc45)ccc3F)nc2n1C1CCCC1 [Compound F2]	> 500	10 to 100
